Test results published in patent US20090018134A1, “Compounds - 945” (AstraZeneca AB, priority 2007, published 2009).

biological target: T1, mTOR (Homo sapiens, UniProt P42345); experiment: In Vitro mTOR Kinase Assay (Echo), Test (a)(ii); format: biochemical; details: read-out: mTOR Kinase Assay (Echo)
T1 construct: FLAG; made in house
How it was run: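 Compounds were acoustically dispensed, then incubated with FLAG-tagged mTOR (1362-2549) for 2 hours at room temperature. Reactions were quenched with EDTA plus detection antibody and AlphaScreen beads and left overnight in the dark before reading. Loss of phospho-T389 signal gave IC50 values.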

T1 sequence (P42345 1362-2549): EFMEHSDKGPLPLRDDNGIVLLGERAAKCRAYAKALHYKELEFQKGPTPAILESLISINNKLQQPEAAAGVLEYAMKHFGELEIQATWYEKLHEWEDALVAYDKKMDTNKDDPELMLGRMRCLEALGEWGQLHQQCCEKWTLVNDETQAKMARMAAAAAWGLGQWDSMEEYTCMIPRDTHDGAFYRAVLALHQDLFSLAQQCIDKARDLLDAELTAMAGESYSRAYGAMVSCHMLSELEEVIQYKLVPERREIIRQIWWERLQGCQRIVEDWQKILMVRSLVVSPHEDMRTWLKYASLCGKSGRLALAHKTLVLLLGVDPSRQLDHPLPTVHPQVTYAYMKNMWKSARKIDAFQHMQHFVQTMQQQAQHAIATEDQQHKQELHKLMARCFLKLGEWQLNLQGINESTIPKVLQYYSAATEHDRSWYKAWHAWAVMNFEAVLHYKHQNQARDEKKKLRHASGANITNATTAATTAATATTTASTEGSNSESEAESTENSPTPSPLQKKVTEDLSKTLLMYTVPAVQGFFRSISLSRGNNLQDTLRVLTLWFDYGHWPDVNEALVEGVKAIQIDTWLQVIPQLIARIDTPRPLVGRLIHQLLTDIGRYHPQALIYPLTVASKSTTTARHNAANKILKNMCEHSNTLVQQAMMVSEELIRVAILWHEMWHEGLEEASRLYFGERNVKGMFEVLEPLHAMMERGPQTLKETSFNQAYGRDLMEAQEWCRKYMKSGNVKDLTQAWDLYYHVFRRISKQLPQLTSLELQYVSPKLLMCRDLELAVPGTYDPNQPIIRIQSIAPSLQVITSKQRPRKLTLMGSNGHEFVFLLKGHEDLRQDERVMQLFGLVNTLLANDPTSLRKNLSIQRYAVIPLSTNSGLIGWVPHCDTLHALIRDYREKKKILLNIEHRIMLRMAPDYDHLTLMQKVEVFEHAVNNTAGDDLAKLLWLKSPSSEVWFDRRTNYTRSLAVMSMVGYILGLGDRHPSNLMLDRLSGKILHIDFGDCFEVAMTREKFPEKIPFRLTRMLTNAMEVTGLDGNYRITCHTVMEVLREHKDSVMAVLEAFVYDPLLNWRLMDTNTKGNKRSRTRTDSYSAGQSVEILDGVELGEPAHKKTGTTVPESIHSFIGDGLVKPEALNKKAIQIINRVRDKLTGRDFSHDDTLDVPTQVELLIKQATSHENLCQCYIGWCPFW

IC50	Compound
9.15 nM	CC(C)S(=O)(=O)C1(c2cc(N3CCOC[C@@H]3C)nc(-c3ccc(NC(=O)NC(C)(C)CO)cc3)n2)CC1 [Example 7f, 3-(1-hydroxy-2-methyl-propan-2-yl)-1-[4-[4-[(3S)-3-methylmorpholin-4-yl]-6-(1-propan-2-ylsulfonylcyclopropyl)pyrimidin-2-yl]phenyl]urea]
4.22 nM	C[C@H]1COCCN1c1cc(C2(S(=O)(=O)C3CC3)CC2)nc(-c2ccc(NC(=O)Nc3ccc(C(F)(F)F)cc3)cc2)n1 [Example 3j, 1-[4-[4-(1-cyclopropylsulfonylcyclopropyl)-6-[(3S)-3-methylmorpholin-4-yl]pyrimidin-2-yl]phenyl]-3-[4-(trifluoromethyl)phenyl]urea]
4.61 nM	C[C@H]1COCCN1c1cc(C2(S(C)(=O)=O)CCCC2)nc(-c2ccc(NC(=O)NCCCO)cc2)n1 [Example 4j, 3-(3-hydroxypropyl)-1-[4-[4-[(3S)-3-methylmorpholin-4-yl]-6-(1-methylsulfonylcyclopentyl)pyrimidin-2-yl]phenyl]urea]
1.85 nM	CC(C)NC(=O)Nc1ccc(-c2nc(N3CCOC[C@@H]3C)cc(C3(S(=O)(=O)c4ccc(F)cc4)CC3)n2)cc1 [Example 8c, 1-[4-[4-[1-(4-fluorophenyl)sulfonylcyclopropyl]-6-[(3S)-3-methylmorpholin-4-yl]pyrimidin-2-yl]phenyl]-3-propan-2-yl-urea]
211 nM	CC(C)S(=O)(=O)C1(c2cc(N3CCOC[C@@H]3C)nc(-c3ccc(NC(=O)NCCN(C)C)cc3)n2)CC1 [Example 7g, 3-(2-dimethylaminoethyl)-1-[4-[4-[(3S)-3-methylmorpholin-4-yl]-6-(1-propan-2-ylsulfonylcyclopropyl)pyrimidin-2-yl]phenyl]urea]
26.6 nM	C[C@H]1COCCN1c1cc(C2(S(=O)(=O)c3ccccc3C(F)(F)F)CC2)nc(-c2ccc(NC(=O)Nc3ccccn3)cc2)n1 [Example 10b, 1-[4-[4-[(3S)-3-methylmorpholin-4-yl]-6-[1-[2-(trifluoromethyl)phenyl]sulfonylcyclopropyl]pyrimidin-2-yl]phenyl]-3-pyridin-2-yl-urea]
1.23 nM	C[C@H]1COCCN1c1cc(C2(S(=O)(=O)c3ccc(F)cc3)CC2)nc(-c2ccc(NC(=O)NC3CC3)cc2)n1 [Example 8b, 3-cyclopropyl-1-[4-[4-[1-(4-fluorophenyl)sulfonylcyclopropyl]-6-[(3S)-3-methylmorpholin-4-yl]pyrimidin-2-yl]phenyl]urea]
6.81 nM	CC(C)NC(=O)Nc1ccc(-c2nc(N3CCOC[C@@H]3C)cc(C3(S(C)(=O)=O)CCC3)n2)cc1 [Example 5c, 1-[4-[4-[(3S)-3-methylmorpholin-4-yl]-6-(1-methylsulfonylcyclobutyl)pyrimidin-2-yl]phenyl]-3-propan-2-yl-urea]

same assay, conditions: table of enzyme assay Test (a)(ii); read-out: Test (a)(ii) IC50

Compound	IC50
Cc1csc(S(=O)(=O)C2(c3cc(N4CCOC[C@@H]4C)nc(-c4ccc(NC(=O)NCc5ncc[nH]5)cc4)n3)CCC2)n1 [Example 98c, 3-(1H-imidazol-2-ylmethyl)-1-[4-[4-[(3S)-3-methylmorpholin-4-yl]-6-[1-[(4-methyl-1,3-thiazol-2-yl)sulfonyl]cyclobutyl]pyrimidin-2-yl]phenyl]urea]	26.7 nM
CNC(=O)Nc1ccc(-c2nc(N3CCOC[C@@H]3C)cc(C3(S(=O)(=O)C4CCOC4)CC3)n2)cc1 (stereo partly drawn) [Example 94g, 3-methyl-1-[4-[4-[(3S)-3-methylmorpholin-4-yl]-6-[1-(oxolan-3-ylsulfonyl)cyclopropyl]pyrimidin-2-yl]phenyl]urea]	12.7 nM
3-(3-hydroxypropyl)-1-[4-[4-[1-(3-hydroxypropylsulfonyl)cyclopro-pyl]-6-[(3S)-3-methylmorpholin-4-yl]pyrimidin-2-yl]phenyl]thiourea [Example 37f]	120 nM
O=C(NCCCO)Nc1ccc(-c2nc(N3CCOCC3)cc(C3(S(=O)(=O)C4CC4)CCCC3)n2)cc1 [Example 13o, 1-[4-[4-(1-cyclopropylsulfonylcyclopentyl)-6-morpholin-4-ylpyrimidin-2-yl]phenyl]-3-(3-hydroxypropyl)urea]	28.7 nM
O=C(NCCO)Nc1ccc(-c2nc(N3CCOCC3)cc(C3(S(=O)(=O)C4CC4)CCCC3)n2)cc1 [Example 13l, 1-[4-[4-(1-cyclopropylsulfonylcyclopentyl)-6-morpholin-4-ylpyrimidin-2-yl]phenyl]-3-(2-hydroxyethyl)urea]	10.8 nM
CCNC(=O)Nc1ccc(-c2nc(N3CCOC[C@@H]3C)cc(C3(S(=O)(=O)c4sc(C)nc4C)CC3)n2)cc1 [Example 78b, 3-[4-[4-[1-[(2,4-dimethyl-1,3-thiazol-5-yl)sulfonyl]cyclopropyl]-6-[(3S)-3-methylmorpholin-4-yl]pyrimidin-2-yl]phenyl]-1-ethylurea]	33.3 nM

More lines, now with the values ahead:

IC50	Compound
6.95 nM	C[C@H]1COCCN1c1cc(C2(S(=O)(=O)c3cc(F)ccc3F)CC2)nc(-c2ccc(NC(=O)NCCF)cc2)n1 [Example 60c, 1-[4-[4-[1-(2,5-difluorophenyl)sulfonylcyclopropyl]-6-[(3S)-3-methylmorpholin-4-yl]pyrimidin-2-yl]phenyl]-3-(2-fluoroethyl)urea]
1.55 nM	Cc1csc(S(=O)(=O)C2(c3cc(N4CCOC[C@@H]4C)nc(-c4ccc(NC(=O)NC5CC5)cc4)n3)CC2)n1 [Example 25, 3-Cyclopropyl-1-[4-[4-[(3S)-3-methylmorpholin-4-yl]-6-[1-[(4-methyl-1,3-thiazol-2-yl)sulfonyl]cyclopropyl]pyrimidin-2-yl]phenyl]urea]
4.01 nM	CCCNC(=O)Nc1ccc(-c2nc(N3CCOCC3)cc(C3(S(=O)(=O)c4nc(C)cs4)CC3)n2)cc1 [Example 42g, 3-[4-[4-[1-[(4-methyl-1,3-thiazol-2-yl)sulfonyl]cyclopropyl]-6-morpholin-4-ylpyrimidin-2-yl]phenyl]-1-propylurea]
7.85 nM	C[C@H]1COCCN1c1cc(C2(S(=O)(=O)c3ccc(OC(F)F)cc3)CC2)nc(-c2ccc(NC(=O)NC3CC3)cc2)n1 [Example 64, 3-Cyclopropyl-1-[4-[4-[1-[4-(difluoromethoxy)phenyl]sulfonylcyclopropyl]-6-[(3 S)-3-methylmorpholin-4-yl]pyrimidin-2-yl]phenyl]urea]
2.62 nM	C[C@H]1COCCN1c1cc(C2(S(=O)(=O)c3ccccc3)CC2)nc(-c2ccc(NC(=O)NCC(F)F)cc2)n1 [Example 36dx, 1-[4-[4-[1-(benzenesulfonyl)cyclopropyl]-6-[(3S)-3-methylmorpholin-4-yl]pyrimidin-2-yl]phenyl]-3-(2,2-difluoroethyl)urea]
1.31 nM	C[C@H]1COCCN1c1cc(C2(S(=O)(=O)c3cc(F)cc(F)c3)CC2)nc(-c2ccc(NC(=O)NC3CC3)cc2)n1 [Example 19, 3-Cyclopropyl-1-[4-[4-[1-(3,5-difluorophenyl)sulfonylcyclopropyl]-6-[(3S)-3-methylmorpholin-4-yl]pyrimidin-2-yl]phenyl]urea]
3.95 nM	CNC(=O)Nc1ccc(-c2nc(N3CCOC[C@@H]3C)cc(C3(S(=O)(=O)C4CCCCC4)CC3)n2)cc1 [Example 26e, 1-[4-[4-(1-cyclohexylsulfonylcyclopropyl)-6-[(3S)-3-methylmorpholin-4-yl]pyrimidin-2-yl]phenyl]-3-methylurea]
3.45 nM	C[C@H]1COCCN1c1cc(C2(S(=O)(=O)c3ccccc3)CCC2)nc(-c2ccc(NC(=O)NC(C)(C)CO)cc2)n1 [Example 64o, 1-[4-[4-[1-(benzenesulfonyl)cyclobutyl]-6-[(3S)-3-methylmorpholin-4-yl]pyrimidin-2-yl]phenyl]-3-(1-hydroxy-2-methylpropan-2-yl)urea]
3.79 nM	C[C@H]1COCCN1c1cc(C2(S(C)(=O)=O)CCCC2)nc(-c2ccc(NC(=O)NCCCO)cc2)n1 [Example 4j, 3-(3-hydroxypropyl)-1-[4-[4-[(3S)-3-methylmorpholin-4-yl]-6-(1-methylsulfonylcyclopentyl)pyrimidin-2-yl]phenyl]urea]
4.73 nM	Cc1ccc(S(=O)(=O)C2(c3cc(N4CCOC[C@@H]4C)nc(-c4ccc(NC(=O)NCCF)cc4)n3)CC2)cc1 [Example 95o, 3-(2-fluoro-ethyl)-1-[4-[4-[(3S)-3-methylmorpholin-4-yl]-6-[1-(4-methylphenyl)sulfonylcyclopropyl]pyrimidin-2-yl]phenyl]urea]
7.88 nM	CCNC(=O)Nc1ccc(-c2nc(N3CCOC[C@H]3C)cc(C3(S(=O)(=O)c4ccccc4)CC3)n2)cc1 [Example 69, 1-[4-[4-[1-(Benzenesulfonyl)cyclopropyl]-6-[(3R)-3-methylmorpholin-4-yl]pyrimidin-2-yl]phenyl]-3-ethylurea]
7.06 nM	C[C@H]1COCCN1c1cc(C2(S(=O)(=O)c3ccc(F)c(Cl)c3)CC2)nc(-c2ccc(NC(=O)NCCO)cc2)n1 [Example 95c, 1-[4-[4-[1-(3-chloro-4-fluorophenyl)sulfonyl-cyclopropyl]-6-[(3S)-3-methylmorpholin-4-yl]pyrimidin-2-yl]phenyl]-3-(2-hydroxyethyl)urea]
7.44 nM	CCNC(=O)Nc1ccc(-c2nc(N3[C@H](C)COC[C@@H]3C)cc(C3(S(=O)(=O)c4ccccc4)CC3)n2)cc1 [Example 73, 1-[4-[4-[1-(Benzenesulfonyl)cyclopropyl]-6-[(3R,5S)-3,5-dimethylmorpholin-4-yl]pyrimidin-2-yl]phenyl]-3-ethylurea]
4.98 nM	C[C@H]1COC[C@H](C)N1c1cc(C2(S(C)(=O)=O)CC2)nc(-c2ccc(NC(=O)NC3CC3)cc2)n1 [Example 91, 3-Cyclopropyl-1-[4-[4-[(3S,5S)-3,5-dimethylmorpholin-4-yl]-6-(1-methylsulfonylyclopropyl)pyrimidin-2-yl]phenyl]urea]
5.17 nM	C[C@H]1COCCN1c1cc(C2(S(=O)(=O)c3ccc(Cl)cc3)CCOCC2)nc(-c2ccc(NC(=O)NC3CC3)cc2)n1 [Example 24, 1-[4-[4-[4-(4-Chlorophenyl)sulfonyloxan-4-yl]-6-[(3S)-3-methylmorpholin-4-yl]pyrimidin-2-yl]phenyl]-3-cyclopropylurea]
2.96 nM	C[C@H]1COCCN1c1cc(C2(S(=O)(=O)c3ccccc3)CCC2)nc(-c2ccc(NC(=O)NCCF)cc2)n1 [Example 64s, 1-[4-[4-[1-(benzenesulfonyl)cyclobutyl]-6-[(3S)-3-methylmorpholin-4-yl]pyrimidin-2-yl]phenyl]-3-(2-fluoroethyl)urea]
